Data: patent US20150064273A1, “Mesenchymal Stem Cells Conditioned Medium and Methods of Generating and Using the Same” (Gamida-Cell Ltd., priority 2012, published 2015)

Legend:
Type in all cases: cell-based
[1] = test system: bone marrow derived mesenchymal stem cells; assay: Bone marrow derived MSC seeding and expansion with nicotinamide
Protocol: FIG. 11 is a bar graph illustrating % of BM derived adherent cells expressing mesenchymal stem cells markers in culture seeded +/−NAM, prior to the first passage. Mononuclear cells were isolated from bone marrow using Ficoll and the “plastic adherence” method in the presence or absence of Nicotinamide. Non-adherent cells were washed away 3-4 days later and the media was replaced every 3-4 days. FACS analysis was performed in order to obtain expression levels of surface molecules prior to the first passage (8 days post-seeding). Isolation: Bone marrow derived and adipose tissue derived mesenchymal cells were isolated based on their plastic adherence potential in expansion medium containing: High glucose DMEM and 10% Fetal Bovine Serum (FBS, Hyclone, Logan, Utah, USA) supplemented with 0.05 mg/ml Gentamicin (Sigma) and 2 mM L-glutamine (Biological Industries, Israel). Cells were allowed to adhere for 3-4 days and non-adherent cells were washed out with medium changes. The medium was further exchanged with fresh medium every 3-4 days. Maintenance and expansion: Once adherent cells reached approximately 80-90% confluency, they were detached with 0.25% trypsin-EDTA (Sigma), washed twice in DMEM and 10% Fetal Bovine Serum, with centrifugation, 400 g, 5 minutes, and re-plated at a 1:2 to 1:1000 dilution under the same culture conditions. Measurement of number of cells in culture: Cell number was measured using Cedex Automated Cell Counter (Innovatis). The cells were diluted 1:2 in Trypan Blue (Sigma) and cell number was measured automatically under microscope. Treatment of mesenchymal cultures with nicotinamide: Mesenchymal cultures were initiated as described above, […], or in combination with growth factors or growth factors alone, incubated at 37° C. in a humidified atmosphere of 5% CO2 in air. At each passage and at each medium exchange, the cultures were supplemented with mesenchymal medium, nicotinamide and growth factors.

[2] = test system: adipose derived mesenchymal stem cells; assay: Adipose tissue derived MSC expansion and cell size with nicotinamide, with or without FGF4; conditions: 5 mM NAM, 50 ng/ml FGF4
Protocol: FIG. 15 is a graph illustrating the effect of nicotinamide, with and without FGF4 on adipose-derived MSC proliferation, through 4 passages of culture. Adipose derived mesenchymal stem cells were isolated using collagenase digestion and plastic adherence method, and cultured for several passages with fetal bovine serum. −NAM−FGF4=controls (blue diamonds), +NAM−FGF4=culture with 5 mM NAM (red squares), +NAM+FGF4=culture with 50 ng/ml FGF4 and 5 mM NAM (green triangles). Note the synergic effect of Nicotinamide and FGF4 added together on adipose-derived MSC proliferation; FIG. 16 is a graph detailing the effect of nicotinamide, with and without FGF4 on nucleated cell proliferation in adipose-derived MSC proliferation at passage 4. Adipose-derived mesenchymal stem cells were isolated and cultured as described in FIG. 15. −NAM−FGF4=controls, +NAM−FGF4=culture with 5 mM NAM, +NAM+FGF4=culture with 50 ng/ml FGF4 and 5 mM NAM. […] Cell size was analyzed by Cedex cell counter. −NAM−FGF4=controls, +NAM−FGF4=culture with 5 mM NAM, +NAM+FGF4=culture with 50 ng/ml FGF4 and 5 mM NAM. Note the smaller size of MSC cells grown in the presence of nicotinamide, and even smaller MSCs grown with nicotinamide and FGF4; Proliferation and cell size distribution in adipose-derived mesenchymal stem cells cultured with nicotinamide with or without additional FGF4 was assessed in up to 4 passages of the cultures.

mesenchymal stem cells = assay: Senescence evaluation assay of cultured MSCs; conditions: MSCs cultured with nicotinamide
Protocol: Senescence evaluation assay: Cultured MSCs were stained using the Senescence beta-Galactosidase Staining Kit (Cell Signaling). The cells are fixed and stained for detection of beta-Galactosidase activity at pH 6 using X-Gal and incubation overnight in 37° C. in dry incubator.

[3] = test system: Hepatocyte Growth Factor (HGF); assay: HGF content of MSC conditioned medium by ELISA; conditions: passage 4; 5 mM NAM, 50 ng/ml FGF4; serum- and FGF4-free medium for 24 hours
Source text: FIG. 22 is a bar graph illustrating enhancement of Hepatocyte Growth Factor (HGF) content of conditioned medium from nicotinamide and FGF4-treated MSC cultures. Bone marrow mesenchymal stem cells were isolated using Ficoll and plastic adherence method, and cultured for several passages with fetal bovine serum, with added nicotinamide and FGF4 (+NAM+FGF4), with added nicotinamide (+NAM−FGF4) and without added nicotinamide or FGF (−NAM−FGF4). Twenty four hours before passage 4, the media was changed and fresh media without fetal bovine serum or FGF4 was added. The cultured media from passage 4 cultures was collected and assayed for HGF content by ELISA. −NAM, −FGF4=control; +NAM−FGF4=5 mM NAM, +NAM+FGF4=5 mM NAM+50 ng/ml FGF4. Note the significant effect of combined FGF4 and nicotinamide on HGF secretion; Mesenchymal stem cells cultured with nicotinamide and FGF4 have enhanced expansion potential, and maintain an undifferentiated state, compared to mesenchymal stem cells cultured in unsupplemented medium, or mesenchymal stem cells cultured with added nicotinamide alone. In order to assess whether mesenchymal stem cells cultured with nicotinamide or nicotinamide and FGF4 modify the culture medium in a unique manner, secretion of biologically active molecules into the culture medium was measured by ELISA, after depletion of the FGF4 from the medium.

IL-6 = IL-6 content of MSC conditioned medium by ELISA; conditions: passage 4; 5 mM NAM, 50 ng/ml FGF4; serum- and FGF4-free medium for 24 hours
Protocol: FIG. 25 is a bar graph illustrating reduction of cytokine IL-6 (IL-6) content of conditioned medium from nicotinamide and FGF4-treated MSC cultures. Bone marrow mesenchymal stem cells were isolated and cultured as in FIG. 22 above. Cultured media was changed to medium without fetal bovine serum or FGF4 24 hours prior to passage 4, collected from the passage 4 cultures and assayed for IL-6 content by ELISA. −NAM, −FGF4=control; +NAM−FGF4=5 mM NAM, +NAM+FGF4=5 mM NAM+50 ng/ml FGF4. […] In order to assess whether mesenchymal stem cells cultured with nicotinamide or nicotinamide and FGF4 modify the culture medium in a unique manner, secretion of biologically active molecules into the culture medium was measured by ELISA, after depletion of the FGF4 from the medium.

## NC(=O)c1cccnc1 [nicotinamide, Nicotinamide]
[1]; low concentration of nicotinamide, e.g. 0.1 mM
  expansion rate of bone marrow derived MSCs: insignificant effect
[1]; nicotinamide added from initiation of culture and at each passage
  MSC doubling time: decreasing doubling time
[1]; seeded with or without nicotinamide
  seeding efficacy (selection) of bone marrow derived MSCs: increased the seeding efficacy
[2]; Cedex cell counter
  size of the expanded adipose-derived mesenchymal stem cells: enhanced growth of populations of smaller (less differentiated) cells
[2]; up to 4 passages
  adipose derived mesenchymal stem cell expansion in culture: substantially improved
Mesenchymal stem cells
  number of senescent cells following culture: reduced
[3]
  HGF level in conditioned medium: elevated levels
IL-6
  IL-6 secreted into conditioned medium: reduction
